Reference: patent publication US9861625B2, “Methods and compositions for treating cancer through inhibition of PI3K” (Duke University, priority 2014, dated 2018)

System: 21 established DLBCL cell lines
Experiment: MTT viability assay of DLBCL cell lines with and without MTOR mutations
Assay type: cell-based
Conditions: on average; FIG. 1G
Protocol: Lymphoma cell lines were cultured with RPMI1640 media supplemented with 10% v/v Fetal Bovine Serum (FBS) and 1% v/v Penicillin/Streptomycin supplied at 10,000 U penicillin and 10 mg streptomycin/ml (BJAB, Farage, Karpas422, Pfieffer, RL, SCI 1, SKI, Toledo, U2932, WSU_NHL, HT), or RPMI1640 supplemented with 15% v/v FBS and 1% v/v P/S (RCK8, SUDH4, SUDHL7), Iscove's modified Dulbecco's medium (IMDM) supplemented with 20% v/v human plasma and 1% P/S ([…]), or alpha-MEM media supplemented with 10% FBS and 1% P/S (TMD8). Cells were grown in a 5% CO2 environment at 37° C.
The effect the PI3K inhibitor drug BKM120 (Novartis) on lymphoma cell lines was assayed on 96-well format using MTT viability assays. 40,000 cells were grown in drug at 10 concentrations: 25 μM, and nine serial 1:2 dilutions down to 0.05 μM. For each condition tested, there were five technical replicates. Two controls were included: media only and drug-free cells. If the IC50 was not reached within this drug concentration range, the experiment was repeated with an additional drug concentration of […]. […] 100 μl of MTT detergent solution was added, and color was developed in the dark at room temperature overnight, after which 570 nm absorbance was measured. After normalization to control wells, the IC50 values were calculated. […]

Nc1cc(C(F)(F)F)c(-c2cc(N3CCOCC3)nc(N3CCOCC3)n2)cn1 [BKM120]
sensitivity of cell lines with MTOR mutations (HT, Ly1, SUDHL7) versus the other 18 cell lines: fivefold higher sensitivity
